From patent US11827690B2, “ApoC-II mimetic peptides” (THE UNITED STATES OF AMERICA, as represented by the …, priority 2017, dated 2023)

Key:
[1] = tested on: C57BL/6 mice (wild-type); experiment: post-prandial serum TG in C57BL/6 mice after oral gavage with vegetable oil; assay type: in vivo; settings: 1 μmoL/kg IP or SQ 30 min before gavage with vegetable oil (10 μL/gram)
Protocol: (§1) C57Bl/6 mice (wild-type), apoC-II knockout (apoC-II KO) mice, and apoC-III transgenic mice were used for in vivo study. The C57Bl/6 mice (wild-type) were purchased from Taconic Biosciences Inc. The apoC-II KO mice were created as described in Sakurai et al., J Pharmacol Exp Ther 356:341-353, 2016. The apoC-III transgenic mice were generated by overexpressing human apoC-III in C57Bl/6 mice. See Qu et al., J. Lipid Res. 48:1476-1487, 2007.
(§2) Mice were fasted overnight (approximately 12 hours) before the study and 6 hours during the study, the next day. The apoC-II mimetic peptides were synthetically produced and free of biological contamination (not available as FDA approved compounds/treatment). Peptides were produced and used in sterile conditions and filtered by 0.2 nm filter before injections in a single dose 1-10 μmol/kg body weight (B. W.) administered either subcutaneous injection (S.Q. or S.C.), intraperitoneal injection (I.P.) or intravenous injection (I.V.) (in a sterile, pharmaceutical grade PBS solution at a volume ≤200 μL) as described in Sakurai et al., J Pharmacol Exp Ther 356:341-353, 2016.
In some experiments, each animal received 20% Intralipid (FDA approved, Fresenius Kabi, Uppsala, Sweden) in a single dose either by oral gavage (using special sterile single-use non-toxic animal feeding needles) in a dose 10-20 μL/gram body weight (B.W.) (Tuzcu et al. Drug Chem Toxicol 37: 261-267, 2014; Kusminski et al. Nature Medicine 18: 1539-1549, 2012), or by intraperitoneal injection in a single bolus of 0.1-1.0 mL (Mahadero et al. American J Surgery 164: 45-50, 1992), or by intragastric administration of a dietetic commercially-available liquid oil (food grade vegetable, corn, soy or olive oil) in a single dose 10-20 μL/gram body weight. These oils were a source of TG—when absorbed TG tends to be broken down within 3 h (peak in 30 min) (Kritchevsky Nutritional Biochemistry 6:172-178, 1995). Blood samples (20-30 μL) were obtained from the retro-orbital plexus at time points: −1 h, 0 h, 1 h, 3 h, 6 h and 24 h for measurements of lipids. Mice were returned to metabolic cages after the 6 h time point where the food was put back. Once the study was completed (after 24 hours from the fat administration), mice were euthanized and organs collected.

[2] = tested on: lipoproteins of human serum; experiment: incubation of human serum with exogenous apoC-II-a; assay type: binding; settings: doses comparable to that achieved in vivo in mice
[3] = molecular target: T1, bovine LPL (Bos taurus, UniProt P11151); experiment: in vitro LPL assay using apoC-II deficient patient sera as substrate; assay type: biochemical
T1 sequence (P11151 29-478): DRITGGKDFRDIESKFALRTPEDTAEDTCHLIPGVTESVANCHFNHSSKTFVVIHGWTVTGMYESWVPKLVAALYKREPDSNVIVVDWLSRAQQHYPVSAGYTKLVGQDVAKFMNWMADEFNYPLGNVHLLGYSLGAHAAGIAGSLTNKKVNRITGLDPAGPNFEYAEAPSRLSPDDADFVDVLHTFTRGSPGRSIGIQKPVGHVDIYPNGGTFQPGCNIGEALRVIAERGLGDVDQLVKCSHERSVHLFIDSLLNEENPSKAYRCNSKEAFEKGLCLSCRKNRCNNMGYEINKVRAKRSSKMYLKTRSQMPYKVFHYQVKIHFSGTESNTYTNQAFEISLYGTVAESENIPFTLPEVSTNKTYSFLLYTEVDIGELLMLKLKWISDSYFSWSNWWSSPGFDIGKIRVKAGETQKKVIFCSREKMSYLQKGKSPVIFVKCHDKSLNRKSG
How it was run: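 Bovine LPL incubated with peptide and substrate (3 mg/dL TG Intralipid or 1:100-diluted apoC-II-deficient human serum) in PBS with BSA, 30 min on ice then 1 h at 37° C. Released free fatty acids quantified by colorimetric NEFA assay (absorbance 550 and 660 nm) against an oleic acid standard.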

[4] = tested on: apoC-III transgenic mice; experiment: plasma TG and apoC-III of apoC-III transgenic mice after peptide injection; assay type: in vivo
Protocol: as §1, §2

[5] = ELISA, 5 μmole/kg, Day 1 and Day 5, 3 h after injection

| Sequence | post-prandial TG rise [1] | binding to lipoproteins and apolipoprotein displacement [2] | LPL activation compared with full length apoC-II protein ([3]; 10 pM to 10 μM, FIG. 51) | LPL activation / TG hydrolysis ([3]; FIG. 52) | apoC-III level on HDL [4, 5] | apoC-III level on VLDL [4, 5] | plasma TG compared to control ([4]; repeat IP injection at 24 h intervals for 5 days, 5 μmole/kg, 1 h, 3 h, 6 h after injection on Day 1 and Day 5) | plasma TG ([4]; single intraperitoneal injection, 1, 5 and 10 μmole/kg, FIG. 38B) | time of maximum decrease of plasma TG ([4]; single intraperitoneal injection, after the injection) |
| --- | --- | --- | --- | --- | --- | --- | --- | --- | --- |
| DWLKAFYDKVAEKLKEAFPAMSTYTGIFTDQVLSVLKGEE (listed as Homo sapiens) [apoC-II-a, excluded from the claimed peptides] | almost completely blunted | binds to all lipoproteins, including HDL and causes the displacement of apoC-I and apoC-III | – | – | – | – | – | – | – |
| DYLKEVFEKLRDLYEKFTPAVSTYTGIFTDQVLSVLKGEE [Delta6PV] | – | – | activated LPL in vitro more efficiently than the full length apoC-II protein | activated LPL in vitro | decreased | decreased | lower plasma TG | rapid and marked reduction of plasma TG | about 6 hours |
